In PMC9669442, “Discovery of novel inhibitors targeting nematode chitinase CeCht1: Virtual screening, biological evaluation, and molecular dynamics simulation” (Frontiers in Chemistry, 2022):

Target: T1, CeCht1 (CeCht1-CAD) (Caenorhabditis elegans, UniProt Q11174)
T1 construct: gene cht-1; secreted/overexpressed in Pichia pastoris GS115, purified as in Chen Q. et al. 2021; catalytic residues Asp175, Asp177, Glu179
Test: end-point fluorescence assay, 4-methylumbelliferone release
Assay type: biochemical
Conditions: for Inhibition rate at 10 μM (%): 4 μM 4-MU-(GlcNAc)2, 10 nM enzyme, 20 mM sodium phosphate pH 6.0, 1% DMSO, 25 °C, 20 min
Source text: end-point fluorescence assay, 4-methylumbelliferone release on CeCht1 (CeCht1-CAD)

T1 sequence (Q11174 52-431): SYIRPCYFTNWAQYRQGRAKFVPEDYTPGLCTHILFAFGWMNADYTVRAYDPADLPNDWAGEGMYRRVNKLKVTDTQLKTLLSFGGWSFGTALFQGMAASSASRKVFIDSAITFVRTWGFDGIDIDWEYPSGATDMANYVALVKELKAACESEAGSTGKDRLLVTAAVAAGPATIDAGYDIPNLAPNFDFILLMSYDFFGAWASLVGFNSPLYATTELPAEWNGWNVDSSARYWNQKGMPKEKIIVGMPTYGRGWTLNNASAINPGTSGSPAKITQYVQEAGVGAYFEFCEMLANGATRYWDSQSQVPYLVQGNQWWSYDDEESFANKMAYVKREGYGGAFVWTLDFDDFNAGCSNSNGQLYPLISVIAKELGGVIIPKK

Row | SMILES | Inhibition rate at 10 μM (%) | IC50 [µM]
1 | Cc1ccc(OCc2cc(=O)n3c4c(sc3n2)CCCC4)c(NC(=O)CC(C)C)c1 [HAU-1] | 30.4 ± 2.5 | 
2 | Cc1ccc2nc(SCc3noc(CCC(=O)Nc4ccc(C)c(C)c4)n3)[nH]c2c1 [HAU-3] | 0.4 ± 0.2 | 
3 | CCn1c(=N)c(C(=O)NCCc2ccc(OC)cc2)cc2c(=O)n3cccc(C)c3nc21 [HAU-4, 1-ethyl-3-((4-methoxyphenethyl)carbamoyl)-10-methyl-5-oxo-1,5-dihydro-2H-dipyrido [1,2-a:2′,3′-d] pyrimidin-2-iminium] |  | 4.2 ± 0.5
4 | COc1ccc2cc(C(C)NC(=O)Cn3nnnc3CN3CCCC3)ccc2c1 (stereo not shown) [HAU-7] |  | 10 ± 2.6

The remaining lines, values ahead:

Row | Inhibition rate at 10 μM (%) | IC50 [µM] | SMILES
5 | 39.4 ± 3.3 |  | COc1ccc(OC)c(-c2nc(C(=O)NCC3CCCO3)cc3c2[nH]c2ccccc23)c1 (stereo not shown) [HAU-9]
6 | 34.9 ± 1.6 |  | CCOc1cccc(CNC2CC(C)(C)Cc3c2cnn3-c2ccc(C)cc2)c1O (stereo not shown) [HAU-11]
7 | 2.0 ± 0.8 |  | CCOc1ccc2ccccc2c1/C=N/NC(=O)CNC(=O)c1ccc2c(c1)OCCO2 [HAU-15]
